Data from ChEMBL document CHEMBL3997762 (Medchemcomm, 2016).
The source made the active and inactive calls. The rule behind the calls is not given here.

Columns and labels:
[1] = Stability of the compound in PBS in presence of FBS by fluorescence assay; type: physicochemical; settings: cattle, buffer
[2] = tested on: GES1; experiment: Cytotoxicity against human GES-1 cells assessed as effect on cell viability up to 100 uM after 48 to 72 hrs by MTT assay; type: cell-based
[3] = tested on: SGC-7901; experiment: Induction of ROS production in human SGC7901 cells at 5 to 10 uM after 48 hrs by MitoTracker Red CM-H2-XRos dye based flow cytometry; type: functional, cell-based
[4] = tested on: SGC-7901; experiment: Induction of apoptosis in human SGC7901 cells assessed as decrease in nonapoptotic cells after 48 hrs by Annexin V/[…] staining-based flow cytometric method; type: functional, cell-based
[5] = tested on: GES1; experiment: Cytotoxicity against human GES-1 cells assessed as effect on cell viability at 10 uM after 48 hrs by MTT assay relative to control; type: cell-based; settings: ges1, 48 h
[6] = tested on: SGC-7901; experiment: Induction of apoptosis in human SGC7901 cells assessed as decrease in viable cells after 48 hrs by Annexin V/[…] staining-based flow cytometric method; type: functional, cell-based
[7] = tested on: SGC-7901; experiment: Cell cycle arrest in human SGC7901 cells assessed as accumulation at G1 phase at <20 uM after 24 hrs by propidium iodide staining based flow cytometry; type: functional
[8] = Drug localization in mitochondria of human MCF7 cells at 5 uM after 24 hrs by MitoTracker Red CM-H2-XRos/Hoechst 33342 dye based confocal fluorescence microscopic analysis; type: ADME
[9] = tested on: SGC-7901; experiment: Cell cycle arrest in human SGC7901 cells assessed as decrease in G1 phase at >20 uM after 24 hrs by propidium iodide staining based flow cytometry; type: functional
[10] = tested on: GES1; experiment: Cytotoxicity against human GES-1 cells assessed as effect on cell viability at 50 uM after 48 hrs by MTT assay relative to control; type: cell-based; settings: ges1, 48 h
[11] = Stability of the compound in DMEM in presence of FBS by fluorescence assay
[12] = tested on: SGC-7901; experiment: Induction of apoptosis in human SGC7901 cells after 48 hrs by Annexin V/[…] staining-based flow cytometric method; type: functional, cell-based
[13] = Drug uptake in human SGC7901 cells at 5 uM after 24 hrs by flow cytometry relative to control; type: ADME, cell-based; settings: sgc-7901, 24 h
[14] = tested on: SGC-7901; experiment: Induction of ROS production in human SGC7901 cells at 5 to 20 uM after 48 hrs by DHE dye based flow cytometry; type: functional, cell-based
[15] = Drug uptake in human SGC7901 cells at 5 uM after 4 hrs by flow cytometry relative to control; type: ADME, cell-based; settings: sgc-7901, 4 h
[16] = tested on: SGC-7901; experiment: Cell cycle arrest in human SGC7901 cells assessed as accumulation at S phase at >20 uM after 24 hrs by propidium iodide staining based flow cytometry; type: functional
[17] = Drug uptake in human SGC7901 cells at 5 uM after 48 hrs by flow cytometry relative to control; type: ADME, cell-based; settings: sgc-7901, 48 h
[18] = tested on: SGC-7901; experiment: Cytotoxicity against human SGC7901 cells assessed as effect on cell viability at 50 uM after 48 hrs by MTT assay relative to control; type: functional
[19] = tested on: SGC-7901; experiment: Cytotoxicity against human SGC7901 cells assessed as effect on cell viability at 10 uM after 48 hrs by MTT assay relative to control; type: functional
[20] = Drug uptake in human SGC7901 cells at 5 uM after 24 hrs by MitoTracker Red CM-H2-XRos/Hoechst 33342 dye based confocal fluorescence microscopic analysis; type: ADME, cell-based; settings: sgc-7901, 24 h
[21] = tested on: SGC-7901; experiment: Cytotoxicity against human SGC7901 cells assessed as decrease in cell viability pretreated for 4 hrs followed by DTT addition measured 48 to 72 hrs post dose by MTT assay; type: functional, cell-based
[22] = Drug localization in mitochondria of human SGC7901 cells at 5 uM after 24 hrs by MitoTracker Red CM-H2-XRos/Hoechst 33342 dye based confocal fluorescence microscopic analysis; type: ADME
[23] = Stability of the compound in DMEM in presence of FBS up to 96 hrs by fluorescence assay
[24] = Drug uptake in human SGC7901 cells at 3 uM after 4 hrs by flow cytometry relative to control; type: ADME, cell-based; settings: sgc-7901, 4 h
[25] = Drug uptake in human SGC7901 cells at 3 uM after 24 hrs by flow cytometry relative to control; type: ADME, cell-based; settings: sgc-7901, 24 h

O=C(Cn1cc(F)c(=O)[nH]c1=O)OCC[n+]1ccc(/C=C/c2c[nH]c3ccccc23)cc1.[Br-]
Stability [1]: 72 h
Activity [2]: Non-Toxic
Activity [3]: Active
Activity [4]: Dose-dependent effect
fold change (FC) [5]: 0.822
Activity [6]: Dose-dependent effect
Activity [7]: Active
Drug uptake [8]: Active
Activity [9]: Active
fold change (FC) [10]: 0.561
Stability [11]: 48 h
Activity [12]: Dose-dependent effect
Drug uptake [13]: 96.6%
Activity [14]: Active
Drug uptake [15]: 96.5%
Activity [16]: Active
Drug uptake [17]: 95.8%
fold change (FC) [18]: 0.597
fold change (FC) [19]: 0.707

O=C(Cn1cc(F)c(=O)[nH]c1=O)NCC[n+]1ccc(/C=C/c2c[nH]c3ccccc23)cc1.[Br-]
Stability [1]: 72 h
Drug uptake [20]: Not Active
fold change (FC) [5]: 1.055
fold change (FC) [10]: 1.069
Stability [11]: 48 h
Drug uptake [13]: 1.4%
Drug uptake [15]: 0.8%
Drug uptake [17]: 1.6%
fold change (FC) [18]: 0.888
fold change (FC) [19]: 0.977

O=c1[nH]cc(F)c(=O)[nH]1 [FLUOROURACIL]
Activity [2]: Toxic
fold change (FC) [5]: 0.733
fold change (FC) [10]: 0.53
fold change (FC) [18]: 0.6
fold change (FC) [19]: 0.986

O=c1[nH]c(=O)n(CCSSCC[n+]2ccc(/C=C/c3c[nH]c4ccccc34)cc2)cc1F.[Br-]
Stability [1]: 72 h
Activity [21]: Active
fold change (FC) [5]: 0.978
fold change (FC) [10]: 0.895
Drug uptake [13]: 98.8%
Drug uptake [22]: Active
Stability [23]: Stable
Drug uptake [15]: 93.2%
Drug uptake [17]: 99.6%
fold change (FC) [18]: 1.021
fold change (FC) [19]: 1.108

O=c1[nH]c(=O)n(CCC[n+]2ccc(/C=C/c3c[nH]c4ccccc34)cc2)cc1F.[Br-]
Stability [1]: 72 h
Drug uptake [20]: Not Active
fold change (FC) [10]: 1.072
Stability [11]: 48 h
Drug uptake [13]: 80.5%
Drug uptake [15]: 78%
Drug uptake [17]: 62.6%
fold change (FC) [18]: 1.019

C[n+]1ccc(/C=C/c2c[nH]c3ccccc23)cc1.[I-]
Drug uptake [24]: 95.4%
Drug uptake [25]: 96.9%
